The source of these data is ChEMBL document CHEMBL4665903, “Novel Tricyclic Compounds for Treating Bacterial Infection” (ACS Med Chem Lett, 2020).

pIC50: −log10 of the molar value.

Common to all, as to type: functional, organism-based
One experiment concerns Staphylococcus aureus. Nature of the experiment: Antibacterial activity against Staphylococcus aureus ATCC 29213 assessed as bacterial growth inhibition and measured every 20 mins for 16 hrs.
A further experiment has as its system Klebsiella pneumoniae. The experiment is described as follows: Antibacterial activity against Klebsiella pneumoniae ATCC 10031 assessed as bacterial growth inhibition and measured every 20 mins for 16 hrs.
Another experiment has as its system Acinetobacter baumannii. Nature of the experiment: Antibacterial activity against Acinetobacter baumannii ATCC 17978 assessed as bacterial growth inhibition and measured every 20 mins for 16 hrs.

As for `CCNc1cc(F)cc2c1[nH]c1ncc(-c3cncc(C#N)c3)c(N3CC[C@@]4(C[C@H]4N)C3)c12`, the negative-log IC50 (pIC50) with Staphylococcus aureus is 6.06; in the experiment on Klebsiella pneumoniae it was over 7.01; with Acinetobacter baumannii, over 7.01.
Turning to `CCNc1cc(F)cc2c1[nH]c1ncc(-c3cncc(C#N)c3)c(N3CCC(F)(CN)C3)c12` (stereo not drawn), the negative-log IC50 (pIC50) in the experiment on Staphylococcus aureus was 6.51; with Klebsiella pneumoniae, over 7.01; in the experiment with Acinetobacter baumannii, over 7.01.
Turning to `CNc1cc(F)c(F)c2c1[nH]c1ncc(-c3cnc4ccnn4c3)c(N3CC[C@H]4CN(C)C[C@H]43)c12`, the negative-log IC50 (pIC50) with Staphylococcus aureus was 6.43; in the experiment with Klebsiella pneumoniae, over 7.01; in the experiment on Acinetobacter baumannii it was over 7.01.
Take `CNc1cc(F)c(F)c2c1[nH]c1ncc(-c3cncc(C#N)c3)c(N3CCCC(F)(CN)C3)c12` (stereo not drawn): the pIC50 in the experiment with Staphylococcus aureus was 6.32; with Klebsiella pneumoniae it was over 7.01; with Acinetobacter baumannii, over 7.01.
`CNc1cc(F)c(F)c2c1[nH]c1ncc(-c3cnc(OC)nc3)c(N3CC[C@@]4(C[C@@H]4N)C3)c12`: the negative logarithm of the IC50 (pIC50) is 6.74 with Staphylococcus aureus, over 7.01 in the experiment on Klebsiella pneumoniae and over 7.01 in the experiment with Acinetobacter baumannii.
In the case of `CCNc1cc(F)c(F)c2c1[nH]c1ncc(-c3cnc(OC)nc3)c(N3CCC[C@@H](CN)C3)c12`, the pIC50 with Staphylococcus aureus was 6.40; with Klebsiella pneumoniae it was over 7.01; with Acinetobacter baumannii, over 7.01.
